Article PMC9481570, “A small molecule antagonist of SMN disrupts the interaction between SMN and RNAP II” (Nature Communications, 2022)

System: GEMIN2
Assay: AP-MS chemical proteomics, GEMIN2
Assay type: binding, human
Experimental: The samples for AP-MS were prepared following pulldown procedure as previously described with minor modifications. Briefly, U2OS cells were lysed in RIPA buffer and the cell lysate was equally divided into two groups: (1) DMSO group (control group): the cell lysate was incubated with 20 μM biotin-labeled compound 1; (2) Cpmd 1 group (sample group): the cell lysate was incubated with 20 μM biotin-labeled compound 1 and 200 μM free compound 1. Each group contains three biological replicates. They were incubated overnight at 4 °C, then 30 μL streptavidin beads (Thermo Fisher, 20353) was added and incubated at 4 °C for 1 h. The beads were then washed with RIPA buffer for 3 times, 10 min/time. […]
Samples were analyzed by nanoLC-MS/MS (nanoRSLC, Thermo Fisher) using an Aurora series (Ion Opticks) reversed phase HPLC column (25 cm length × 75 µm inner diameter) and directly injected to an Orbitrap Eclipse (Thermo Fisher) using a 120 min gradient (mobile phase A = 0.1% formic acid, mobile phase B = 99.9% acetonitrile with 0.1% formic acid; hold 2% B for 5 min, 2–6% B in 0.1 min, 6–25% in 100 min, 25–50% in 15 min) at a flow rate of 350 nL/min. Eluted peptide ions were analyzed using a data-dependent acquisition (DDA) method with resolution settings of 120,000 and 15,000 (at m/z 200) for MS1 and MS2 scans, respectively. […]

Cn1c2c(c(=N)c3c1CCC3)CCC2 [Compound 1, 4-methyl-2,3,4,5,6,7-hexahydrodicyclopenta[b,e]pyridin-8(1H)-imine]
Difference (GN=GEMIN2 (O14893), Cmpd minus DMSO, -LOG(P-value) 2.68522): -5.244
log2 FC (Cmpd 1/DMSO), GEMIN2 (biotin-Cmpd 1 pulldown, competition with 200 μM compound 1 relative to DMSO, U2OS lysate): −5.2
